US20170224654A1, “PHARMACEUTICAL COMPOSITIONS AND METHODS FOR COUNTERING CHEMOTHERAPY INDUCED CARDIOTOXICITY” (Stem Cell Theranostics, Inc., priority 2016, published 2017)
Entries after “also recorded” stand apart in the source; their conditions may differ.

Tests used:
[1] = system: TOPOII enzymes (TOPOIIα and TOPOIIβ); assay: kDNA decatenation assay, TOPOIIα and TOPOIIβ jointly; assay type: biochemical; settings: discussion of Table 1
Protocol: 200 ng of kinetoplast DNA (kDNA) was incubated with one enzymatic unit of TOPOIIα or TOPOIIβ enzyme (Inspiralis) and with various concentrations of MYR or DEX at 37° C. for 30 min. The reaction was then separated on 1% agarose gel for visualization of decatenated DNA (bottom band). The efficiency of catalytic inhibition was quantified by measuring the relative intensity of the band.

[2] = system: Doxorubicin treated human iPSC-derived cardiomyocytes; assay: iPSC-CM protection of MYR analogs against doxorubicin; assay type: cell-based; settings: for cardioprotection (in words): discussion of Table 1
[3] = system: Human iPSC-derived cardiomyocytes; assay: Cytotoxicity of MYR analogs to cardiomyocytes; settings: for Toxicity: 100 μM; for cytotoxicity / toxic effects to cardiomyocytes (in words): at or below 100 μM as stated
[4] = target: T1, TOPOIIβ (Homo sapiens, UniProt Q02880); assay: kDNA decatenation assay; assay type: biochemical; settings: for TOPOIIβ enzymatic inhibition (in words): DHM: even at >200 μM
T1 construct: purchased Inspiralis
T1 sequence (Q02880 whole entry): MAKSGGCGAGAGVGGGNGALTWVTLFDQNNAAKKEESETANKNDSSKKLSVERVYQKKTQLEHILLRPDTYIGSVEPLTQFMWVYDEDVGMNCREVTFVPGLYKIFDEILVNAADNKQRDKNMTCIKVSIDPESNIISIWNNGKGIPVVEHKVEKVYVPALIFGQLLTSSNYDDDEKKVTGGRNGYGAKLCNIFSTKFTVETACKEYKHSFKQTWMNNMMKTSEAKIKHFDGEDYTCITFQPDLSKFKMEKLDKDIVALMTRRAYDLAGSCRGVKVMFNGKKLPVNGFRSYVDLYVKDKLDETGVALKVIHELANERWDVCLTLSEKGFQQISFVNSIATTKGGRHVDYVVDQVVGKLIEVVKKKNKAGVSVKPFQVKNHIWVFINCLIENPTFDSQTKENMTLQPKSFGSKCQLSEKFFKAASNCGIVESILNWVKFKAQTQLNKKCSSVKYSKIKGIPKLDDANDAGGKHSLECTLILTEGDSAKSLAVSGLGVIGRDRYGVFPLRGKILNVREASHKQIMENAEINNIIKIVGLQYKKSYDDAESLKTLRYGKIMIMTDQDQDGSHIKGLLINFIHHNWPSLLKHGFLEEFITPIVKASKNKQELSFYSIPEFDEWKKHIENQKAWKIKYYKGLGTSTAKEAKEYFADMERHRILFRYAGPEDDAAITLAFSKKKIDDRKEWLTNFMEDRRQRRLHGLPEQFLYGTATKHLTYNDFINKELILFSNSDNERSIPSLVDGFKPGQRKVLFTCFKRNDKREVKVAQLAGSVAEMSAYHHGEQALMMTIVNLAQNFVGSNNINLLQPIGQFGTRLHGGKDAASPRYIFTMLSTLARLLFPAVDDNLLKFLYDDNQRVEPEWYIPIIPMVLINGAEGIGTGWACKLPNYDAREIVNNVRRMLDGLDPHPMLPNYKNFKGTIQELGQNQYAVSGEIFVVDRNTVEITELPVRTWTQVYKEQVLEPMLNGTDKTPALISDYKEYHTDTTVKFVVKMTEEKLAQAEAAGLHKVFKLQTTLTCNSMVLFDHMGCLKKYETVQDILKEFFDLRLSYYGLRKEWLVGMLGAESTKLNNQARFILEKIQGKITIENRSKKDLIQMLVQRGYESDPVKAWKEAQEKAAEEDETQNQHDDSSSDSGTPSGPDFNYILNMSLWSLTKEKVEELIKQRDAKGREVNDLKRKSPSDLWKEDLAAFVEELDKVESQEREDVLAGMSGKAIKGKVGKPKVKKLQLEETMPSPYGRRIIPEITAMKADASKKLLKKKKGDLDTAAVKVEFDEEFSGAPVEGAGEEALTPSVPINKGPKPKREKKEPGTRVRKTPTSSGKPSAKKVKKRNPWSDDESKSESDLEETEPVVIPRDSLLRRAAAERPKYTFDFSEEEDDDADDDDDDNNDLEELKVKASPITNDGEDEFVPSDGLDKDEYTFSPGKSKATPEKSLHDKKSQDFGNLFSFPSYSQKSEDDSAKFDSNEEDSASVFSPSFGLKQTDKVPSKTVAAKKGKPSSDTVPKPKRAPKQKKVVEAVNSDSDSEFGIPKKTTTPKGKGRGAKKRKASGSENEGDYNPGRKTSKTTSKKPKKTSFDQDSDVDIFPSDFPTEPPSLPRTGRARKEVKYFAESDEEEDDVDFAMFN

[5] = target: T2, TOPOIIα (Homo sapiens, UniProt P11388); assay: kDNA decatenation assay; assay type: biochemical; settings: for TOPOIIα enzymatic inhibition (in words): DHM: even at >200 μM
T2 construct: purchased Inspiralis
T2 sequence (P11388 whole entry): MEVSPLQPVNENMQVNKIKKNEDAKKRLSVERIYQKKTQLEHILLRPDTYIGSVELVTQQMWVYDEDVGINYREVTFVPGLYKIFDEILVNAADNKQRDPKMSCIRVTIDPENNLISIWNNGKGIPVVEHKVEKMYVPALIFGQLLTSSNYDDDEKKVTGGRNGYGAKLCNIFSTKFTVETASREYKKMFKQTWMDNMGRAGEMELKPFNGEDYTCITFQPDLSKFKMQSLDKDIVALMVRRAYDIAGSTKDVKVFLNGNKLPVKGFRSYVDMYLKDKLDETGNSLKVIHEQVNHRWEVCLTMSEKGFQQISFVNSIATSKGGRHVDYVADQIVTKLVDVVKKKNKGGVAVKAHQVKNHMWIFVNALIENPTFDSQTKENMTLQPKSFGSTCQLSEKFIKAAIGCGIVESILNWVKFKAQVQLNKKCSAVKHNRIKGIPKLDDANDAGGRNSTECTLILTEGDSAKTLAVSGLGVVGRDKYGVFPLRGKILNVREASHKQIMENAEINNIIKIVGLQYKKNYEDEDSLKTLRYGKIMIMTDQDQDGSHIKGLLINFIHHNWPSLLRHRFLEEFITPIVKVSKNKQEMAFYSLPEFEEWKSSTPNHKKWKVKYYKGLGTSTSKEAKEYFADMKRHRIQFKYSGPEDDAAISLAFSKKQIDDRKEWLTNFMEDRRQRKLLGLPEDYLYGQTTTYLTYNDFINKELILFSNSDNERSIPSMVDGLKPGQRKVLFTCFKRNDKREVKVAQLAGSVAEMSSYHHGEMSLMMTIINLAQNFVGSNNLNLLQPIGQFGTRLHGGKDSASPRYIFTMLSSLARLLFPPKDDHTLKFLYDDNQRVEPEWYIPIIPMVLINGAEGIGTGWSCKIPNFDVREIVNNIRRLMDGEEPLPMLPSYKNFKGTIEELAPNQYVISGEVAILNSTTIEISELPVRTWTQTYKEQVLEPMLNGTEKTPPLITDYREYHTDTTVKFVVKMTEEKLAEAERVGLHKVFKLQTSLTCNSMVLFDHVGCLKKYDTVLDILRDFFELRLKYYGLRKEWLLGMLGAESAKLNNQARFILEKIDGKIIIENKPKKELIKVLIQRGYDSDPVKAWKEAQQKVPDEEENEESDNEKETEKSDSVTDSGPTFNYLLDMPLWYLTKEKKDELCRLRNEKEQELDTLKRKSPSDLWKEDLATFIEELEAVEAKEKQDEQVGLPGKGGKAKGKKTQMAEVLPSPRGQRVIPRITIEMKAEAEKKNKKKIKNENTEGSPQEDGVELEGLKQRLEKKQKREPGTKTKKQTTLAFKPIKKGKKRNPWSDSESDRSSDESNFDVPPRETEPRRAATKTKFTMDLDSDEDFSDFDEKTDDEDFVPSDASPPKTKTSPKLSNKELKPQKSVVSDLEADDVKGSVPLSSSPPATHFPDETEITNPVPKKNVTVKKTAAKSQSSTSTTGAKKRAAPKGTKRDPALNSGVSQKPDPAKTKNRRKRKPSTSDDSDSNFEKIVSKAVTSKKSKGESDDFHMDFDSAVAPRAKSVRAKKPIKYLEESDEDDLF

For `COc1ccc2c(=O)c(OC)c(-c3cc(OC)c(OC)c(OC)c3)oc2c1` [3,7,3′,4′,5′-O-pentamethylrobinetin], which “TOPOII (TOPOIIα and TOPOIIβ) inhibition (in words)” value [1] is on record?
The value was “entirely failed to display cardioprotection or TOPOII inhibition”.

And the “cardioprotection (in words)” value [2]?
Its value is “entirely failed to display cardioprotection or TOPOII inhibition”.

With `O=c1cc(-c2ccc(O)cc2)oc2ccccc12` [Compound 17, 4′-hydroxyflavone] as the molecule, how does the Emax ([2]; Homo sapiens, iPSC-CM, initial screen at 10 μM or 100 μM, read-out: iPSC-CM protection Max Effect (%)) read?
The Emax was under 30%.

And the Toxicity [3]?
The Toxicity was “−”.

How did the “TOPOIIβ Inhibition” value [4] turn out when `COc1cc(-c2oc3cc(O)ccc3c(=O)c2O)cc(OC)c1OC` [Compound 35, 3′,4′,5′-O-trimethylrobinetin] was run?
Its value is “−”.

And the “TOPOIIα Inhibition” value [5]?
The value was “−”.

`COc1c(O)cc(-c2oc3cc(O)cc(O)c3c(=O)c2O)cc1O` [4′-O-methylmyricetin] was tested. Which “TOPOII (TOPOIIα and TOPOIIβ) inhibition (in words)” value [1] did it give?
Its value is “without TOPOII inhibition”.

And the “cardioprotection (in words)” value [2]?
The value was “conferred cardioprotection”.

Which “TOPOII (TOPOIIα and TOPOIIβ) inhibition (in words)” value [1] does the source give for `O=c1cc(-c2cc(O)c(O)c(O)c2)oc2cc(O)cc(O)c12` [Compound 3, 5,7,3′,4′,5′-pentahydroxyflavone] here?
The value was “TOPOII inhibition”.

And the “cardioprotection (in words)” value [2]?
Its value is “displayed cardioprotection”.

What about the “cytotoxicity / toxic effects to cardiomyocytes (in words)” value (“cytotoxicity / toxic effects” for short) ([3]; listed as tricetin) of the same molecule?
The value was “exhibits some toxic effects at concentrations less than 100 μM; also recorded: low level of cytotoxicity at 100 μM”.

Which “TOPOII (TOPOIIα and TOPOIIβ) inhibition (in words)” value [1] does the source give for `COc1cc(-c2oc3cc(O)cc(O)c3c(=O)c2O)cc(OC)c1OC` [3′,4′,5′-O-trimethylmyricetin] here?
Its value is “entirely failed to display cardioprotection or TOPOII inhibition”.

And the “cardioprotection (in words)” value [2]?
The value was “entirely failed to display cardioprotection or TOPOII inhibition”.

Which “TOPOII (TOPOIIα and TOPOIIβ) inhibition (in words)” value [1] does the source give for `O=c1c(O)c(-c2ccccc2)oc2cc(O)cc(O)c12` [3,5,7-trihydroxyflavone] here?
The value was “neither cardioprotection nor TOPOII inhibition”.

What about the “cardioprotection (in words)” value [2] of the same molecule?
The value was “neither cardioprotection nor TOPOII inhibition”.

What about the “cytotoxicity / toxic effects” value [3] of the same molecule?
The value was “generalized cytotoxicity”.

Which results are given for `O=c1c(O)c(-c2ccc(O)cc2)oc2cc(O)ccc12` [Compound 10, 3,7,4′-trihydroxyflavone]?
TOPOIIβ Inhibition [4]: −; TOPOIIα Inhibition [5]: −; cytotoxicity / toxic effects to cardiomyocytes (in words) [3]: exhibited toxic effects at concentrations below 100 μM

With `O=c1ccoc2cc(O)ccc12` [Compound 7-hydroxy-4-chromone, 7-hydroxy-4-chromone] as the molecule, how does the “TOPOII (TOPOIIα and TOPOIIβ) inhibition (in words)” value [1] read?
The value was “Nor did either compound confer TOPOIIβ or a inhibition”.

What about the “cardioprotection (in words)” value [2] of the same molecule?
Its value is “no positive effect in cardiac protection”.

And the “cytotoxicity / toxic effects” value [3]?
The value was “high level of cytotoxicity at 100 μM”.

Which “TOPOII (TOPOIIα and TOPOIIβ) inhibition (in words)” value [1] does the source give for `COc1cc(-c2oc3cc(O)ccc3c(=O)c2O)cc(OC)c1OC` [3′,4′,5′-O-trimethylrobinetin] here?
Its value is “entirely failed to display cardioprotection or TOPOII inhibition”.

What about the “cardioprotection (in words)” value [2] of the same molecule?
Its value is “entirely failed to display cardioprotection or TOPOII inhibition”.

How did the “TOPOII (TOPOIIα and TOPOIIβ) inhibition (in words)” value [1] turn out when `COc1cc(-c2oc3cc(O)cc(O)c3c(=O)c2O)cc(OC)c1O` [3′,5′-O-dimethylmyricetin] was run?
The value was “neither cardioprotection nor TOPOIIα and TOPOIIβ inhibition”.

What about the “cardioprotection (in words)” value [2] of the same molecule?
The value was “neither cardioprotection nor TOPOIIα and TOPOIIβ inhibition”.

Which results are given for `O=c1c(O)c(-c2ccc(O)c(O)c2)oc2cc(O)cc(O)c12` [Compound 4, 3,5,7,3′,4′-pentahydroxyflavone]?
TOPOII (TOPOIIα and TOPOIIβ) inhibition (in words) [1]: exhibited TOPOII inhibition; cardioprotection (in words) [2]: conferred cardioprotection; cytotoxicity / toxic effects to cardiomyocytes (in words) [3]: high level of general cytoxicity

Which results are given for `COc1cc(-c2oc3cc(O)cc(O)c3c(=O)c2O)cc(OC)c1OC` [Compound 34, 3′,4′,5′-O-trimethylmyricetin]?
TOPOIIβ Inhibition [4]: −; TOPOIIα Inhibition [5]: −

For `COc1cc(-c2oc3cc(O)cc(O)c3c(=O)c2O)cc(O)c1O` [Compound 31, 3′-O-methylmyricetin], which “TOPOIIβ Inhibition” value [4] is on record?
The value was “−”.

What about the “TOPOIIα Inhibition” value [5] of the same molecule?
Its value is “−”.

Which results are given for `COc1ccc2c(=O)c(O)c(-c3cc(OC)c(OC)c(OC)c3)oc2c1` [7,3′,4′,5′-O-tetramethylrobinetin]?
TOPOII (TOPOIIα and TOPOIIβ) inhibition (in words) [1]: entirely failed to display cardioprotection or TOPOII inhibition; cardioprotection (in words) [2]: entirely failed to display cardioprotection or TOPOII inhibition

`O=c1ccoc2ccccc12` [Compound 29, chromone] was tested. Which Toxicity [3] did it give?
The Toxicity was “−”.

With `COc1ccc2c(=O)c(O)c(-c3cc(OC)c(OC)c(OC)c3)oc2c1` [Compound 36, 7,3′,4′,5′-O-tetramethylrobinetin] as the molecule, how does the “TOPOIIβ Inhibition” value [4] read?
Its value is “−”.

And the “TOPOIIα Inhibition” value [5]?
Its value is “−”.

What does the source list for `O=c1cc(-c2cc(O)c(O)c(O)c2)oc2cc(O)ccc12` [7,3′,4′,5′-tetrahydroxyflavone]?
TOPOII (TOPOIIα and TOPOIIβ) inhibition (in words) [1]: did not inhibit TOPOII enzymes; cardioprotection (in words) [2]: displayed cardioprotection

How did the “TOPOIIβ Inhibition” value [4] turn out when `COc1c(O)cc(-c2oc3cc(O)cc(O)c3c(=O)c2O)cc1O` [Compound 32, 4′-O-methylmyricetin] was run?
Its value is “−”.

What about the “TOPOIIα Inhibition” value [5] of the same molecule?
The value was “−”.

Which results are given for `O=c1cc(-c2ccc(O)c(O)c2)oc2cc(O)ccc12` [Compound 11, 7,3′,4′-trihydroxyflavone]?
TOPOIIβ Inhibition [4]: −; TOPOIIα Inhibition [5]: −

What does the source list for `O=c1cc(-c2ccc(O)c(O)c2)oc2cc(O)cc(O)c12` [Compound 9, 5,7,3′,4′-tetrahydroxyflavone]?
TOPOIIβ Inhibition [4]: −; TOPOIIα Inhibition [5]: −

Which results are given for `COc1ccc2c(=O)c(OC)c(-c3cc(OC)c(OC)c(OC)c3)oc2c1` [Compound 37, 3,7,3′,4′,5′-O-pentamethylrobinetin]?
TOPOIIβ Inhibition [4]: −; TOPOIIα Inhibition [5]: −

How did the “TOPOIIβ Inhibition” value [4] turn out when `O=c1cc(-c2cc(O)c(O)c(O)c2)oc2cc(O)ccc12` [Compound 6, 7,3′,4′,5′-tetrahydroxyflavone] was run?
The value was “−”.

What about the “TOPOIIα Inhibition” value [5] of the same molecule?
The value was “−”.

What about the Toxicity [3] of the same molecule?
The Toxicity was “−”.

What does the source list for `O=C1c2c(O)cc(O)cc2O[C@H](c2cc(O)c(O)c(O)c2)[C@H]1O` [dihydromyricetin]?
TOPOIIβ enzymatic inhibition (in words) [4]: did not inhibit; TOPOIIα enzymatic inhibition (in words) [5]: did not inhibit

`O=c1ccoc2cc(O)ccc12` [Compound 38, 7-hydroxy-4-chromone] was tested. Which “TOPOIIβ Inhibition” value [4] did it give?
Its value is “−”.

And the “TOPOIIα Inhibition” value [5]?
Its value is “−”.

With `O=c1ccoc2ccccc12` [chromone] as the molecule, how does the “TOPOII (TOPOIIα and TOPOIIβ) inhibition (in words)” value [1] read?
The value was “Nor did either compound confer TOPOIIβ or a inhibition”.

And the “cardioprotection (in words)” value [2]?
Its value is “no positive effect in cardiac protection”.

For `COc1cc(-c2oc3cc(O)cc(O)c3c(=O)c2O)cc(OC)c1O` [Compound 33, 3′,5′-O-dimethylmyricetin], which “TOPOIIβ Inhibition” value [4] is on record?
Its value is “−”.

What about the “TOPOIIα Inhibition” value [5] of the same molecule?
Its value is “−”.

Which “TOPOIIβ Inhibition” value [4] does the source give for `O=c1c(O)c(-c2ccc(O)c(O)c2)oc2ccccc12` [Compound 12, 3,3′,4′-trihydroxyflavone] here?
The value was “−”.

And the “TOPOIIα Inhibition” value [5]?
Its value is “−”.

`O=c1c(O)c(-c2cc(O)c(O)c(O)c2)oc2cc(O)ccc12` [Compound 2, 3,7,3′,4′,5′-pentahydroxyflavone] was tested. Which “TOPOIIβ enzymatic inhibition (in words)” value [4] did it give?
The value was “high level of inhibition”.

And the “TOPOIIα enzymatic inhibition (in words)” value [5]?
The value was “high level of inhibition”.

And the Toxicity [3]?
Its Toxicity is “−”.

For `O=C1c2ccc(O)cc2OC(c2cc(O)c(O)c(O)c2)C1O` (stereo in doubt) [Compound 30, dihydrorobinetin], which “TOPOIIβ Inhibition” value [4] is on record?
Its value is “−”.

And the “TOPOIIβ enzymatic inhibition (in words)” value [4]?
Its value is “no inhibitory activity”.

What about the “TOPOIIα Inhibition” value [5] of the same molecule?
Its value is “−”.

And the “TOPOIIα enzymatic inhibition (in words)” value [5]?
The value was “no inhibitory activity”.

Which “TOPOIIβ Inhibition” value [4] does the source give for `O=c1cc(-c2cc(O)c(O)c(O)c2)oc2ccccc12` [Compound 8, 3′,4′,5′-trihydroxyflavone] here?
The value was “−”.

And the “TOPOIIα Inhibition” value [5]?
The value was “−”.

What about the Toxicity [3] of the same molecule?
The Toxicity was “−”.
